“Also recorded” adds a separate entry of the source.
Test system: viral DNA (circularization versus integration into .phi.X174 target DNA)
Test: Circularization versus integration (competition) in cytoplasmic extracts from infected cells
Format: biochemical, HIV-1
Description: Circularization of the linear viral DNA present in cytoplasmic extracts was competitive with integration into heterologous DNA targets (FIG. 28). In FIG. 28, cytoplasmic extracts from infected cells were incubated at 37° C. as follows: Lane 1; incubation with 10 μg/ml .phi.X174 DNA for 45 minutes, lane 2, incubation with 1 mM ATP for 45 minutes; lane 3, incubation with […] .phi.X174 DNA and 1 mM ATP for 45 minutes; lane 4, incubation with 10 μg/ml .phi.X174 DNA for 45 minutes, followed by incubation with 1 mM ATP for 45 minutes; lane 5, incubation with 1 mM ATP for 45 minutes, followed by incubation with 10 μg/ml .phi.X174 DNA for 45 minutes; lane 6, incubation with nothing added for 45 minutes, followed by incubation with 10 μg/ml .phi.X174 DNA for 45 minutes. In FIG. 29, lanes 1-6, cytoplasmic extracts from infected cells were incubated at 37° C. for 45 minutes in the presence of 1 mM ATP and .phi.X174 DNA at a concentration of 0 μg/ml (lane 1), 0.3 μg/ml (lane 2), 0.8 μg/ml (lane 3), 1.6 μg/ml (lane 4), 3.2 μg/ml (lane 5), or 6.4 μg/ml (lane 6). Lane 7, extract incubated with 6.4 μg/ml .phi.X174 DNA for 45 minutes in the absence of added ATP. In FIG. 30, cytoplasmic extracts from infected cells were incubated at 37° C. for 60 minutes with nothing added (lane 1), with 6.4 μg/ml .phi.X174 DNA and 1 mM ATPγS (lane 2), or with 1 mM […] (lane 3). […]

Nc1ncnc2c1ncn2[C@@H]1O[C@H](COP(=O)(O)OP(=O)(O)OP(=O)(O)O)[C@@H](O)[C@H]1O [ATP, adenosine triphosphate]
circular or integrated product (ATP (1 mM) and target DNA together, versus either alone, 45 min): the amount of circular or integrated product produced was reduced | integration of viral DNA into target DNA (preincubation with 1 mM ATP for 45 min prior to target DNA): integration of viral DNA into target DNA was prevented; also recorded: unable to integrate during a subsequent incubation with target DNA
